Experimental data published in patent US9586936B2, “Heteroarylamine derivatives as protein kinase inhibitors” (KOREA INSTITUTE OF SCIENCE AND TECHNOLOGY, priority 2014, dated 2017).

How the values were obtained:
Experiment in all cases: kinase inhibition activity, full kinase panel
Format in all cases: biochemical
Conditions in all cases: 1 μM of the compound; read-out: kinase activity inhibited (% inhibition)
FLT4 = FLT4 (Homo sapiens, UniProt P35916)
Procedure: (§1) In order to measure the inhibition activity (% inhibition) of the compound of the present invention against protein kinases, a biochemical assay was conducted using a full kinase panel consisting of 340 kinases. As a representative compound of the present invention, N-(2,6-dichloro-3,5-dimethoxyphenyl)-1-(6-((4-(4-ethylpiperazin-1-yl)phenyl)amino)pyrimidin-4-yl)-1H-benz[d]imidazol-2-amine synthesized in Example 1 was used.
(§2) The kinases whose activity is inhibited by 50% or more when treated with 1 μM of the compound of Example 1 are listed in Table 1.

ROS = ROS (Homo sapiens, UniProt P08922)
Chain of ROS (P08922 28-2347): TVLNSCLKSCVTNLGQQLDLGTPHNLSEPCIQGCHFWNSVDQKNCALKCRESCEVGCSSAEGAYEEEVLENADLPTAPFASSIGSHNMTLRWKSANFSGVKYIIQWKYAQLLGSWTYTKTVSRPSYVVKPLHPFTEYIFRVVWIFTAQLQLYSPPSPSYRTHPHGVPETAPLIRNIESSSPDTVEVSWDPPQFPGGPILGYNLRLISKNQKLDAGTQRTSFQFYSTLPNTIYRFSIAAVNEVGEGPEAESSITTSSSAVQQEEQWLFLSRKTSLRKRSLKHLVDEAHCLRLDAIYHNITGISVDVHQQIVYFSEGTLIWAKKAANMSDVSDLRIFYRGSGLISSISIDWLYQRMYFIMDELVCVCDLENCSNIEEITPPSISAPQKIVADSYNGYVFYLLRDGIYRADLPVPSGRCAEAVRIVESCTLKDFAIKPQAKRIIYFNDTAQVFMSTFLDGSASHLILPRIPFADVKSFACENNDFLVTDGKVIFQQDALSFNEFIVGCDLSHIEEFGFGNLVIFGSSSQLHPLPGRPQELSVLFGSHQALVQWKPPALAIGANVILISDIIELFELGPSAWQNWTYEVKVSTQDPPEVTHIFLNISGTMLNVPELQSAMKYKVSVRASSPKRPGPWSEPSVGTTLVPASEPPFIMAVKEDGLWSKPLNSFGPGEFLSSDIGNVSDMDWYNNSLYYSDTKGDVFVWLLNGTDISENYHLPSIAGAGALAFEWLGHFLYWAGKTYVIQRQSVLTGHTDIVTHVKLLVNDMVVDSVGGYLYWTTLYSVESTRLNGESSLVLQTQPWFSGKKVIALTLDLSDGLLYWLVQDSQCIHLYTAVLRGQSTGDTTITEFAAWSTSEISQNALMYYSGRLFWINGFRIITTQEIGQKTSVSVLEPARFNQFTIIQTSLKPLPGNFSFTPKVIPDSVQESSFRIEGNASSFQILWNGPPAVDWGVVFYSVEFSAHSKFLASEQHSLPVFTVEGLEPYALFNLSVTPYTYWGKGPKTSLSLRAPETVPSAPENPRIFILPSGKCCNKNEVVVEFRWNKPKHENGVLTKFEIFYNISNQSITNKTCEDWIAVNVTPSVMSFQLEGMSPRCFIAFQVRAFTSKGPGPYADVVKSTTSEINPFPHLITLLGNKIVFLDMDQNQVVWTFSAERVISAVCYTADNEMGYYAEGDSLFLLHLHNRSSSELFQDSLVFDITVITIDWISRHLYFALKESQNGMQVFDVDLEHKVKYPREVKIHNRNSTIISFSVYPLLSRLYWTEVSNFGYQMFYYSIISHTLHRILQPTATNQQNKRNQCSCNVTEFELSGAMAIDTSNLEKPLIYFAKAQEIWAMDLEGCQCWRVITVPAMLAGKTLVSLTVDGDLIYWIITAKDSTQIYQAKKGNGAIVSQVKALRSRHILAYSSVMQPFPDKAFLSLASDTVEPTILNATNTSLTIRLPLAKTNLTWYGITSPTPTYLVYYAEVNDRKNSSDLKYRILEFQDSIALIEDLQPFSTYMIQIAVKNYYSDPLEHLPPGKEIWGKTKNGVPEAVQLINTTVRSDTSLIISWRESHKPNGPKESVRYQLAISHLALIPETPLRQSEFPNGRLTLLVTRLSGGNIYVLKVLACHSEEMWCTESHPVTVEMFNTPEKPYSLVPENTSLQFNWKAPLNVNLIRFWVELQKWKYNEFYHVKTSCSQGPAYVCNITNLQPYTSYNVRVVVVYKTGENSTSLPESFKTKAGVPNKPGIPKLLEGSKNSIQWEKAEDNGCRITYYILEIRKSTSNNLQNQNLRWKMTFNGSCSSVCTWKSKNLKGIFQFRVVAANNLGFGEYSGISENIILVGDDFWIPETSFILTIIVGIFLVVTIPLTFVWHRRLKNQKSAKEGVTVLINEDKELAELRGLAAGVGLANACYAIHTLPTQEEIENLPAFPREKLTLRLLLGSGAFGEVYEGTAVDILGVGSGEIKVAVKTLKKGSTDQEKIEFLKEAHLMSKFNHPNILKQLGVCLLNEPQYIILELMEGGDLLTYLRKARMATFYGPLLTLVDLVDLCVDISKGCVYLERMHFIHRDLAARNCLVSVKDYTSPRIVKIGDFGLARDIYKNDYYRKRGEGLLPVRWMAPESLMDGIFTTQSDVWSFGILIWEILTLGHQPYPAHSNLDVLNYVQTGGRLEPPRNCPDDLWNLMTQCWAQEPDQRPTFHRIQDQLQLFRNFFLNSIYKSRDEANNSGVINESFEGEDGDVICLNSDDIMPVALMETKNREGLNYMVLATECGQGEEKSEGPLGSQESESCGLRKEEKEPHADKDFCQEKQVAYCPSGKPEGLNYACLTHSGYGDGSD
Procedure: as §1, §2

TAOK1 = TAOK1 (Homo sapiens, UniProt Q7L7X3)
Chain of TAOK1 (Q7L7X3 whole entry): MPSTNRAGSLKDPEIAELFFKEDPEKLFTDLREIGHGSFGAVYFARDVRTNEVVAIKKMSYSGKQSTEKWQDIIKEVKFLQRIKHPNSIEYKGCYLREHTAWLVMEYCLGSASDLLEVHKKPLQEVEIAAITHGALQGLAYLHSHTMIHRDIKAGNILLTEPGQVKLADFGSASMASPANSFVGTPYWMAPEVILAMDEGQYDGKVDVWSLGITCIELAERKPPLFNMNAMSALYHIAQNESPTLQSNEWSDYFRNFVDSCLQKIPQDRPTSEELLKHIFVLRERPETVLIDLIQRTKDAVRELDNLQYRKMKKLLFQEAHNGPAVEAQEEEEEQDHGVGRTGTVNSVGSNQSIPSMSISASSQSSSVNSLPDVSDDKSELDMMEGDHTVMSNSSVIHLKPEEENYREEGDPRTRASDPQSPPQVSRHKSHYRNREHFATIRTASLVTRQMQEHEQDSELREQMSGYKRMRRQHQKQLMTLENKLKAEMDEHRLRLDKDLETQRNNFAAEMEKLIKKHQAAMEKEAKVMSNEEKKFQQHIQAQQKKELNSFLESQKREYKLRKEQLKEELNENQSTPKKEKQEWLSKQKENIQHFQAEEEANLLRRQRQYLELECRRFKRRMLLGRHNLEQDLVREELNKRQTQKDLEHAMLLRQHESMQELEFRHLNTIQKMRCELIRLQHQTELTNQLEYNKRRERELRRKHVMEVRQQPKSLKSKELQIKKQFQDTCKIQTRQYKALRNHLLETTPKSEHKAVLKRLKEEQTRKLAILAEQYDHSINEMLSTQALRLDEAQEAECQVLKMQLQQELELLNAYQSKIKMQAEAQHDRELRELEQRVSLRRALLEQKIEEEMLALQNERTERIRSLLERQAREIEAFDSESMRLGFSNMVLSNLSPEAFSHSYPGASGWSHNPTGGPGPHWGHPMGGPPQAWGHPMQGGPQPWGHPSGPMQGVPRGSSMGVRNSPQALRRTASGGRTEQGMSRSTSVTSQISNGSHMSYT
Procedure: as §1, §2

c-Src = c-Src (Homo sapiens, UniProt P12931)
Chain of c-Src (P12931 whole entry): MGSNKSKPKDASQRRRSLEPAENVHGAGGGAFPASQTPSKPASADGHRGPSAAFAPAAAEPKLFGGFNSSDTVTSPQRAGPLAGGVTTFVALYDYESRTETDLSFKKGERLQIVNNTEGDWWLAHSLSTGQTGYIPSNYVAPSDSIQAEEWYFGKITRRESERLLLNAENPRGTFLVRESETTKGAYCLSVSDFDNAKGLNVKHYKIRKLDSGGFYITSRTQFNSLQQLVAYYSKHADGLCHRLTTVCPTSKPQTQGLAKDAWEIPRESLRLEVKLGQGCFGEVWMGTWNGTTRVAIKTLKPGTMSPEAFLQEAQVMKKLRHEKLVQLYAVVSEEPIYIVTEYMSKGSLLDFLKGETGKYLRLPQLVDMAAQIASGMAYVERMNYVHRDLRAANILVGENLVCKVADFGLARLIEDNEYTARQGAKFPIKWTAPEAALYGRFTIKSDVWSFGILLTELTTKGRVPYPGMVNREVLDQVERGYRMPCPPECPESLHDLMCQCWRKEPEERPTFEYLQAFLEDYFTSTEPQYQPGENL
Procedure: as §1, §2

c-Kit = c-Kit (Homo sapiens, UniProt P10721)
Procedure: as §1, §2

EGFR = EGFR (Homo sapiens, UniProt P00533)
Chain of EGFR (P00533 25-1210): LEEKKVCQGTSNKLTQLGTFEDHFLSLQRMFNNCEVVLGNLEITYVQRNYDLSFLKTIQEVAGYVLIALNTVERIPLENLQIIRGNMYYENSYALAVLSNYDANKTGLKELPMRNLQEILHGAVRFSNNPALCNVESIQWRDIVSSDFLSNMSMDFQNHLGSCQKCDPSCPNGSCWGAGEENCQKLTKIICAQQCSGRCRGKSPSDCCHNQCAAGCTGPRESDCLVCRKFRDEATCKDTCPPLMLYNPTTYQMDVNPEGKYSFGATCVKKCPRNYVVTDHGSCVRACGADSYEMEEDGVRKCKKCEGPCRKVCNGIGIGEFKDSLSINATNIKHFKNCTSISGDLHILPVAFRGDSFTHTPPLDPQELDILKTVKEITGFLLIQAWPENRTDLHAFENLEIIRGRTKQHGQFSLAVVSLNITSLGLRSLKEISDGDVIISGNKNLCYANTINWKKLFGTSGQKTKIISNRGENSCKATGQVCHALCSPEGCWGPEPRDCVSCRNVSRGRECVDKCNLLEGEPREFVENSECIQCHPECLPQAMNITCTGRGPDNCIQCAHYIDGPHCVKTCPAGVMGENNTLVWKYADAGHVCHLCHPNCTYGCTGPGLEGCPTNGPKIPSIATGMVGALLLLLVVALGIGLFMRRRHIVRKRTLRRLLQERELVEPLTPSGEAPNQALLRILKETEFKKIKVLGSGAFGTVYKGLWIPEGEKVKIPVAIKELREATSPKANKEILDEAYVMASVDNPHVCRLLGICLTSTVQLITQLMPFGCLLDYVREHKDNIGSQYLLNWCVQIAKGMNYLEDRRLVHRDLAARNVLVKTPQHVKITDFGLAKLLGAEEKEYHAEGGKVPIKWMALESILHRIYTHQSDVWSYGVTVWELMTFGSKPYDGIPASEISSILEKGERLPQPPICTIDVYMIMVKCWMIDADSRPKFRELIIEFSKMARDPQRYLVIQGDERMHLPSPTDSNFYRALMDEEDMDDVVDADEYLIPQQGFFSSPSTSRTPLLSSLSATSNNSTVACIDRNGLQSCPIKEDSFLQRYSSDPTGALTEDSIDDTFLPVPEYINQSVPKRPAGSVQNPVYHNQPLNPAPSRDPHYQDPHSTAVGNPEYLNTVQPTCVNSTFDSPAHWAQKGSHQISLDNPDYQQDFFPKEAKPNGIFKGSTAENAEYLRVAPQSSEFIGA
Procedure: as §1, §2

inhibition at 1 µM (FLT4): ≥ 50%
inhibition at 1 µM (ROS): ≥ 50%
inhibition at 1 µM (TAOK1): ≥ 50%
inhibition at 1 µM (c-Src): ≥ 50%
inhibition at 1 µM (c-Kit): ≥ 50%
inhibition at 1 µM (EGFR): ≥ 50%
SMILES: CCN1CCN(c2ccc(Nc3cc(-n4c(Nc5c(Cl)c(OC)cc(OC)c5Cl)nc5ccccc54)ncn3)cc2)CC1 [Example 1, N-(2,6-dichloro-3,5-dimethoxyphenyl)-1-(6-((4-(4-ethylpiperazin-1-yl)phenyl)amino)pyrimidin-4-yl)-1H-benz[d]imidazol-2-amine]
